Data reported in patent US10524472B2, “Elicitor peptides having disrupted hypersensitive response box and use thereof” (Plant Health Care, Inc., priority 2014, dated 2020).
Marks after values point to notes of the source that are not given here.

Tests used:
Type in all cases: in vivo
[1] = system: tobacco mosaic virus (TMV); assay: Induction of resistance to tobacco mosaic virus in tobacco; details: for TMV response / effectiveness against TMV infection (summary of Table 22): foliar spray; for Effectiveness Covered (%) (decline in TMV lesions vs UTC, systemic response) / Effectiveness Uncovered (%) (decline in TMV lesions vs UTC, local response): TMV 3 days post-treatment, scored 3 days after inoculation
Soy plants = assay: Growth tests after foliar spray, soy; details: for growth, dry biomass and fresh mass (text summary of Table 21): foliar spray; for Dry biomass increase (%) / Fresh mass increase (%) / Growth increase (%): soy, 14 days
Experimental: Soy seeds (or corn seeds, as indicated) were planted in flats with 2 seeds per cell within the flat at a greenhouse facility. The seeds were allowed to germinate and the smaller plant is culled, leaving one plant per cell. Once the first true leaves are fully expanded and the second leaves are beginning to expand, the plants were initially measured for height. This was performed by stretching the highest leaf upward and measuring the distance to the soil. Peptides were dissolved in water at the indicated concentrations (Table 21 below). The plants were then treated with a foliar spray using widely available spray bottles until liquid was dripping from the leaves. Six flats of 14 plants each were treated per condition (peptide or control). Designated untreated control plants were sprayed with water. The plants were allowed to grow for 14 days. The height of the plants was again measured and compared to the original height to quantify growth. Finally, the plants were harvested by removing the shoots (all above-ground material). For some experiments, this was weighed upon harvesting to determine the fresh mass (including water weight). The shoots were then dried at 70° C. for 72 hours, and again weighed to determine dry biomass. Although this method uses a similar measure (growth) as in Example 3 above, the treatment method is different (seed soak vs. foliar spray). As a result, the experimental outcomes may diverge.

soybean seeds = assay: Root & shoot growth analysis after seed soak, soy; details: for root growth (text summary of Table 20) / shoot growth (Table 20): seed soak; for shoot growth (Table 20): p14a soy at 0.2 μg/ml; for Root (root growth index, percentage increase over untreated control) / Shoot (shoot length, percentage increase over untreated control): soy, 12-14 days
Experimental: Peptides were tested for biological effects on the allocation of growth resources to the shoot (above ground) and root (below ground). Peptides were dissolved at 0.2, 2, or 5 μg/ml in a total volume of 100 ml deionized water. Corn or soybean seeds were then soaked for one hour in the peptide solution. Untreated control (UTC) plants were soaked in deionized water. Clear plastic 300 ml beverage cups (Solo®, Dart Container Corporation) were prepared for planting by marking the bottom with a cross, dividing the bottom into four equal quadrants. The cups were then filled with Sunshine Mix #1 soil (SunGro Horticulture) sieved to ¼″. 100 ml of water was added to the soil. Treated seeds were then planted by pressing the seed lightly into the top of the soil. The seeds were then covered with an additional 50 ml of loose soil. Seeds were allowed to germinate and grow for 12-14 days.
The length of the shoot was measured as the distance from the soil to the lightly stretched tip of the highest leaf for each plant. […] Stunting was defined as lacking a fully expanded true leaf at time of data collection or having an expanded true leaf judged by eye to be <½ the average leaf area of the treatment group. Generally, 30 seeds were planted per treatment group and 15-25 plants were used for data collection.
Root growth was estimated by counting the number of times that a primary root crosses the quadrant marks on the bottom of the cup. These were often observed along the bottom circumference of the cup, although some were visible along the side of the container and were counted as if crossing a vertical extension of the quadrant line. This number was divided by 4 to produce a root growth index.
Each number indicates the percentage increase over the untreated control values.

In the case of QAGPQSANKTGNVDDANNQDPMQALMQLL (P14-dc4), the “TMV response / effectiveness against TMV infection (summary of Table 22)” value (shortened to “TMV response / effectiveness”) [1] is reported as “reduced effectiveness against TMV infection”, the “Effectiveness Covered (%) (decline in TMV lesions vs UTC, systemic response)” value (shortened to “Effectiveness Covered (%)”) ([1]; spray 10 ug/ml) is reported as 19% and the “Effectiveness Uncovered (%) (decline in TMV lesions vs UTC, local response)” value (“Effectiveness Uncovered (%)” for short) ([1]; spray 10 ug/ml) is reported as 34%. For the same sequence, the “growth, dry biomass and fresh mass (text summary of Table 21)” value (from here on “growth, dry biomass and fresh mass”) (Soy plants) was “lose the significant growth, dry biomass, and fresh mass benefits”, the “Dry biomass increase (%)” value (Soy plants; foliar spray 0.2 ug/ml) was 5.6% and the “Fresh mass increase (%)” value (Soy plants; foliar spray 0.2 ug/ml) was 7.5%. The “Growth increase (%)” value (Soy plants; foliar spray 0.2 ug/ml) was 2.6%, the “Dry biomass increase (%)” value (Soy plants; foliar spray 2.0 ug/ml) was −1.6% and the “Fresh mass increase (%)” value (Soy plants; foliar spray 2.0 ug/ml) was 0.4%. For the same sequence, the “Growth increase (%)” value (Soy plants; foliar spray 2.0 ug/ml) was −4.6%, the “Dry biomass increase (%)” value (Soy plants; foliar spray 5.0 ug/ml) was −7.6% and the “Fresh mass increase (%)” value (Soy plants; foliar spray 5.0 ug/ml) was −15.4%. The “Growth increase (%)” value (Soy plants; foliar spray 5.0 ug/ml) was −17%.

In the case of SEEEEELEQLLEDLVKLL (P14-32), the “Effectiveness Covered (%)” value ([1]; spray 20 ug/ml) is reported as 82* %, the “Effectiveness Uncovered (%)” value ([1]; spray 20 ug/ml) is reported as 90* % and the “growth, dry biomass and fresh mass” value (Soy plants) is reported as “increases in growth and dry biomass”. For the same sequence, the “Dry biomass increase (%)” value (Soy plants; foliar spray 0.2 ug/ml) was 6.8%, the “Fresh mass increase (%)” value (Soy plants; foliar spray 0.2 ug/ml) was 2.9% and the “Growth increase (%)” value (Soy plants; foliar spray 0.2 ug/ml) was 9.5%. For the same sequence, the “Dry biomass increase (%)” value (Soy plants; foliar spray 2.0 ug/ml) was 8.2%, the “Fresh mass increase (%)” value (Soy plants; foliar spray 2.0 ug/ml) was 27.6% and the “Growth increase (%)” value (Soy plants; foliar spray 2.0 ug/ml) was 1.7%. The “Dry biomass increase (%)” value (Soy plants; foliar spray 5.0 ug/ml) was 14%, the “Fresh mass increase (%)” value (Soy plants; foliar spray 5.0 ug/ml) was 33.3% and the “Growth increase (%)” value (Soy plants; foliar spray 5.0 ug/ml) was 12.5%.

For ANNQDPMQALMQLLEDLV (P14a), the “growth, dry biomass and fresh mass” value (Soy plants) was “increases for all 3 measures”, the “growth, dry biomass and fresh mass” value (Soy plants; listed as p14a) was “increases in growth and dry biomass” and the “Dry biomass increase (%)” value (Soy plants; foliar spray 0.2 ug/ml) was 12.6%. The “Fresh mass increase (%)” value (Soy plants; foliar spray 0.2 ug/ml) was 46.8%, the “Growth increase (%)” value (Soy plants; foliar spray 0.2 ug/ml) was 14.7% and the “Dry biomass increase (%)” value (Soy plants; foliar spray 2.0 ug/ml) was 11.0%. The “Fresh mass increase (%)” value (Soy plants; foliar spray 2.0 ug/ml) was 57.9%, the “Growth increase (%)” value (Soy plants; foliar spray 2.0 ug/ml) was 3.4% and the “Dry biomass increase (%)” value (Soy plants; foliar spray 5.0 ug/ml) was 10.6%. The “Fresh mass increase (%)” value (Soy plants; foliar spray 5.0 ug/ml) was 83.3%, the “Growth increase (%)” value (Soy plants; foliar spray 5.0 ug/ml) was 8.9% and the “root growth (text summary of Table 20)” value (soybean seeds) was “Increased root growth”. For the same sequence, the “shoot growth (Table 20)” value (soybean seeds) was “increased shoot growth”, the “Root (root growth index, percentage increase over untreated control)” value (soybean seeds; seed soak 0.2 μg/ml) was −2.7% and the “Shoot (shoot length, percentage increase over untreated control)” value (soybean seeds; seed soak 0.2 μg/ml) was 8.7%*. The “Root (root growth index, percentage increase over untreated control)” value (soybean seeds; seed soak 5.0 μg/ml) was 10.3%* and the “Shoot (shoot length, percentage increase over untreated control)” value (soybean seeds; seed soak 5.0 μg/ml) was −3.5%.

SQGISEKQLDQDLSQLIQALLQP (P4-14S-12D) was tested, and the “TMV response / effectiveness” value [1] was “produced the best results”, the “Effectiveness Covered (%)” value ([1]; spray 5.0 ug/ml) was 60* % and the “Effectiveness Uncovered (%)” value ([1]; spray 5.0 ug/ml) was 61* %. The “Dry biomass increase (%)” value (Soy plants; foliar spray 5.0 ug/ml) was −3.6% and the “Growth increase (%)” value (Soy plants; foliar spray 5.0 ug/ml) was −4.2%.

SQGISEKQLDQLLSQLIQASLQP (P4-14S-20S) was tested, and the “TMV response / effectiveness” value [1] was “weaker TMV responses”, the “Effectiveness Covered (%)” value ([1]; spray 10 ug/ml) was −45% and the “Effectiveness Uncovered (%)” value ([1]; spray 10 ug/ml) was 59* %. The “shoot growth (Table 20)” value (soybean seeds) was “increased shoot growth”, the “Root (root growth index, percentage increase over untreated control)” value (soybean seeds; seed soak 5.0 μg/ml) was 2.2% and the “Shoot (shoot length, percentage increase over untreated control)” value (soybean seeds; seed soak 5.0 μg/ml) was 5.8%*.

In the case of SQGISEKQLDQLLSQSIQALLQP (P4-14S-16S), the “Effectiveness Covered (%)” value ([1]; spray 10 ug/ml) is reported as 46%, the “Effectiveness Uncovered (%)” value ([1]; spray 10 ug/ml) is reported as 72* % and the “root growth (text summary of Table 20)” value (soybean seeds; listed as P4-14s-16s) is reported as “strong shift in resource allocation to root growth”. For the same sequence, the “root growth (text summary of Table 20)” value (soybean seeds; listed as p4-14s-16s) was “Increased root growth”, the “Root (root growth index, percentage increase over untreated control)” value (soybean seeds; seed soak 0.2 μg/ml) was 28.3% and the “Shoot (shoot length, percentage increase over untreated control)” value (soybean seeds; seed soak 0.2 μg/ml) was −2.0%. For the same sequence, the “Root (root growth index, percentage increase over untreated control)” value (soybean seeds; seed soak 2.0 μg/ml) was 28.3%* and the “Shoot (shoot length, percentage increase over untreated control)” value (soybean seeds; seed soak 2.0 μg/ml) was −11.3%.

In the case of SQGISEKQLDQLLSQLIQALDQP (P4-14S-21D), the “Effectiveness Covered (%)” value ([1]; spray 10 ug/ml) is reported as 48% and the “Effectiveness Uncovered (%)” value ([1]; spray 10 ug/ml) is reported as 49%.

For SEEEEEDAQLLAQLLKSLL (P18min-7D), the “efficacy on covered leaves, systemic immune response” value ([1]; covered leaf) was “reduced efficacy on covered leaves”, the “TMV response / effectiveness” value [1] was “weaker TMV responses” and the “Effectiveness Covered (%)” value ([1]; spray 20 ug/ml) was 29%. The “Effectiveness Uncovered (%)” value ([1]; spray 20 ug/ml) was 26%.

For SQGISEKQLDQLLSQL (P4-116), the “TMV response / effectiveness” value [1] was “reduced effectiveness against TMV infection”, the “Effectiveness Covered (%)” value ([1]; spray 10 ug/ml) was 0* % and the “Effectiveness Uncovered (%)” value ([1]; spray 10 ug/ml) was 52%.

SEEEEELTGVLQKLSKILEAL (P25min-15S) was tested, and the “Effectiveness Covered (%)” value ([1]; spray 20 ug/ml) was 74* % and the “Effectiveness Uncovered (%)” value ([1]; spray 20 ug/ml) was 81* %.

For “QAGPQSANKTGNVDDANNQDPLQALAQLAEDLV (P14-22L,26,29A)”, the “Effectiveness Covered (%)” value ([1]; spray 10 ug/ml) was 70* % and the “Effectiveness Uncovered (%)” value ([1]; spray 10 ug/ml) was 85* %.

SEEEEELAQLLAQLL (P18-9) was tested, and the “Effectiveness Covered (%)” value ([1]; spray 20 ug/ml) was 52% and the “Effectiveness Uncovered (%)” value ([1]; spray 20 ug/ml) was 65* %.

In the case of “QAGPQSANKTGNVDDANNQDPLQALLQLAEDAV (p14-22L,29,32A) [P14-22L,28,32A]”, the “Effectiveness Covered (%)” value ([1]; spray 10 ug/ml) is reported as 37* % and the “Effectiveness Uncovered (%)” value ([1]; spray 10 ug/ml) is reported as 71* %.

SEEEEELEQLLEDLV (P14-39) was tested, and the “Effectiveness Covered (%)” value ([1]; spray 20 ug/ml) was 66* % and the “Effectiveness Uncovered (%)” value ([1]; spray 20 ug/ml) was 72* %.

For SEEEEELTLTGVLQKLLKIL (P25-14), the “TMV response / effectiveness” value [1] was “weaker control of TMV infection”, the “Effectiveness Covered (%)” value ([1]; spray 20 ug/ml) was −87% and the “Effectiveness Uncovered (%)” value ([1]; spray 20 ug/ml) was 52%.

For “QAGPQSANKTGNVDDANNQDPLQAAAQLLEDLV (P14-22L,25-26A)”, the “Effectiveness Covered (%)” value ([1]; spray 10 ug/ml) was 75* % and the “Effectiveness Uncovered (%)” value ([1]; spray 10 ug/ml) was 87* %.

For KPNDSQSNIAKLISALI (P15-62), the “Effectiveness Covered (%)” value ([1]; spray 20 ug/ml) was −122% and the “Effectiveness Uncovered (%)” value ([1]; spray 20 ug/ml) was 94* %.

“QAGPQSANKTGNVDDANNQDPLQALAQLLEDLV (P14-22L,26A)” was tested, and the “Effectiveness Covered (%)” value ([1]; spray 20 ug/ml) was 83* % and the “Effectiveness Uncovered (%)” value ([1]; spray 20 ug/ml) was 72* %.
